Assay results: BindingDB's records for doi:10.1021/jm050184y (National Taiwan University, 2005)
pIC50, pKi: −log10 of the molar value.

target: Replicase polyprotein 1ab (Severe acute respiratory syndrome coronavirus, UniProt P0C6X7); assay: SARS-CoV 3CL Protease Inhibition Assay; details: pH 7; 25 °C
Description: The effects of compound on enzyme activity were measured by using a fluorogenic peptide cleavage assay. Enhanced fluorescence caused by cleavage of the substrate peptide was monitored at 538 nm with excitation at 355 nm. The Ki measurements were performed at two fixed inhibitor concentrations and various substrate concentrations.

Compound	pIC50	pKi
O=C(C[C@H](O)C(=O)N[C@@H](Cc1ccccc1)C(=O)Nc1ccc([N+](=O)[O-])cc1Cl)N[C@@H](Cc1ccccc1)C(=O)Nc1ccc([N+](=O)[O-])cc1Cl [(2S)-N,N'-bis[(1S)-1-[(2-chloro-4-nitrophenyl)carbamoyl]-2-phenylethyl]-2-hydroxybutanediamide]	5.40	5.51
Cc1cc(C(=O)N[C@H](C(=O)N[C@@H](Cc2ccccc2)C(=O)N[C@@H](Cc2ccccc2)C(=O)Nc2ccc([N+](=O)[O-])cc2Cl)C(C)C)[n-][o+]1 [(2S)-N-[(1S)-1-{[(1S)-1-[(2-chloro-4-nitrophenyl)carbamoyl]-2-phenylethyl]carbamoyl}-2-phenylethyl]-3-methyl-2-[(5-methyl-1,2-oxazol-3-yl)formamido]butanamide]	5.15	5.54
Cc1cc(C(=O)N[C@H](C(=O)N[C@@H](Cc2ccccc2)C(=O)N[C@H](C(=O)N[C@@H](Cc2ccccc2)C(=O)Nc2ccc([N+](=O)[O-])cc2Cl)C(C)O)C(C)C)no1 (stereo partly drawn) [N-[(5-methylisoxazol-3-yl)carbonyl]-L-valyl-L-phenylalanyl-L-threonyl-N-(2-chloro-4-nitrophenyl)-L-phenylalaninamide]	5.30	5.79
CC(C)C[C@H](NC(=O)[C@@H](NC(=O)OC(C)(C)C)C(C)C)C(=O)N[C@@H](Cc1ccccc1)C(=O)Nc1ccc([N+](=O)[O-])cc1Cl [tert-butyl N-[(1S)-1-{[(1S)-1-{[(1S)-1-[(2-chloro-4-nitrophenyl)carbamoyl]-2-phenylethyl]carbamoyl}-3-methylbutyl]carbamoyl}-2-methylpropyl]carbamate]	< 5.00	
O=C(Nc1ccc([N+](=O)[O-])cc1Cl)c1cc(Cl)ccc1O [5-chloro-N-(2-chloro-4-nitrophenyl)-2-hydroxybenzamide]	< 4.30	
